From patent US8318723B2, “Pyrazine compounds, their use and methods of preparation” (Boehringer Ingelheim International GmbH, priority 2006, dated 2012)

Target: PIM-2 (Homo sapiens, UniProt Q9P1W9)
Test: PIM-2 assay, single-concentration screen (luciferase-luciferin ATP depletion)
Assay type: biochemical
Conditions: percent of control at 3 μg/mL final assay concentration, 1 μM ATP, 5 μM peptide substrate, 60 minutes
Protocol: The activity of PIM-2 is measured using luciferase-luciferin based ATP detection reagent to quantify ATP depletion resulting from kinase-catalyzed phosphoryl transfer to a peptide substrate. The screen utilizes the Zymark Allegro UHTS system to dispense reagents, buffers and test compounds. To Greiner 384-well, white Lumitrac-200 plates, 20 μL/well of 20 nM PIM-2 (10 nM final assay concentration) in assay buffer (25 mM HEPES, pH 7.5, 10 mM MgCl2, 50 mM KCl, 0.2% CHAPS, 100 μM Na3VO4, 0.2% BSA and 200 μM TCEP) is delivered, followed by 10 μL/well of test compounds (3 μg/mL final assay concentration in 1% DMSO) that were previously dissolved in DMSO and diluted in assay buffer. A 10 μL volume of a solution containing 4 μM ATP (1 μM final assay concentration) and 20 μM peptide substrate (Biotin-[…], 5 μM final assay concentration) diluted in assay buffer is added to each well and the contents of the wells are mixed. […] The assay plates are read on an Analyst (Molecular Devices) in luminescence mode following additional 15 minutes of incubation at room temperature. Luminescence signals are converted to percent of control (POC) values using the formula: POC=(BCTRL−Signal)÷(BCTRL−PCTRL), where Signal is the test well signal, BCTRL is the average of background control well signals on the plate and PCTRL is the average of positive control well signals on the plate.

Chain of PIM-2 (Q9P1W9 whole entry): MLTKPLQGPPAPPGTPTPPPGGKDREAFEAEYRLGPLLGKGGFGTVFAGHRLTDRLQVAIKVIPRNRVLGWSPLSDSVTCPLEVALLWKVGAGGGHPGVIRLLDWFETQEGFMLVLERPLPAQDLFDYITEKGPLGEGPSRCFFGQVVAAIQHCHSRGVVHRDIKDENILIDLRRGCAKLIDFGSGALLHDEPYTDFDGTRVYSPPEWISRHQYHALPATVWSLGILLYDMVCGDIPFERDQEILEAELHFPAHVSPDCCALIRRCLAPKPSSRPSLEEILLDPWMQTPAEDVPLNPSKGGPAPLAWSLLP

For `CN1CCCN(c2cncc(-c3cccc(/C=C/C(=O)NCCO)c3)n2)CC1` [compound 45, (E)-N-(2-Hydroxy-ethyl)-3-{3-[6-(4-methyl-perhydro-1,4-diazepin-1-yl)-pyrazin-2-yl]-phenyl}-acrylamide], the “POC @ 3 μg/mL” value was 63 POC @ 3 μg/mL.
